Results published in patent publication US20240083839A1, “COMPOSITIONS AND METHODS FOR TREATING NEURODEGENERATIVE DISEASES AND DISORDERS” (The Regents of the University of California, priority 2020, published 2024).
Values joined by “and” are separate entries in the source; they are usually repeats but may differ in a detail not shown here. Equal entries are not always repeated.

Assays:
[1] = system: SirT1 levels in N2a-E4 cells; test: SirT1 levels by AlphaLISA in ApoE4-transfected N2a cells; type: cell-based, murine; conditions: for SirT1 increase: N2a-E4 cells
Description: Prompted by the emerging importance of the associations between ApoE4 and the expression/protein levels of SirT1, high-throughput screening (HTS) of the UCLA compound library was performed using AlphaLISA to detect SirT1 levels in murine neuroblastoma cells stably transfected with ApoE4 (E4-N2a) to identify SirT1 enhancers. […] In the in vivo study, mice were treated orally at 40 mkd (20 mg/kg BID) for 56 days and underwent assessment of cognition in the Novel Object Recognition (NOR) testing paradigm. […] The performance of A03-treated E4-AD mice (FIG. 5A) improved to level of non-transgenic vehicle-treated mice.
Throughout, for PAMPA: unit not given here.

Row | PAMPA (PAMPA) | Structure (SMILES) | SirT1 SOμM [1] | SirT1 SμM [1] | SirT1 increase [1]
1 | 4.72 | CC(C)(Cc1ccc(Cl)cc1)OC(=O)C(N)Cc1ccccc1 (centres unmarked) [MP-01, 1-(4-chlorophenyl)-2-methylpropan-2-yl 2-amino-3-phenylpropanoate] | A, A (A >20%) | A, A (A >20%) | –
2 | 2.75 | CC(N)C(=O)OC(C)(C)Cc1ccc(F)cc1 (centres unmarked) [MP-04, 1-(4-fluorophenyl)-2-methylpropan-2-yl 2-aminopropanoate] | B (B >50%) | A (A >20%) | –
3 | 5.63 | CC(C)CC(N)C(=O)OC(C)(C)Cc1ccc(Cl)cc1 (centres unmarked) [MP-05, 1-(4-chlorophenyl)-2-methylpropan-2-yl 2-amino-4-methylpentanoate] | B (B >50%) | A (A >20%) | –
4 | 4.22 | Cc1ccc(CC(C)(C)OC(=O)C(C)N)cc1 (centres unmarked) [MP-06, 2-methyl-1-p-tolylpropan-2-yl 2-aminopropanoate] | B (B >50%) | A (A >20%) | –
5 | 4.15 | CC(C)(Cc1ccc(Cl)cc1)OC(=O)CN [MP-07, 1-(4-chlorophenyl)-2-methylpropan-2-yl 2-aminoethanoate] | B (B >50%) | A (A >20%) | –
6 | 4.65 | CC(C)C(N)C(=O)OC(C)(C)Cc1ccc(Cl)cc1 (centres unmarked) [MP-08, 1-(4-chlorophenyl)-2-methylpropan-2-yl 2-amino-3-methylbutanoate] | C (C = 100% increase versus control) | A (A >20%) | –
7 | 6.58 | CC(N)C(=O)OC1(Cc2ccc(Cl)cc2)CCCCC1 (centres unmarked) [MP-10, 1-(4-chlorobenzyl)cyclohexyl 2-aminopropanoate] | B (B >50%) | A (A >20%) | –
8 | 5.28 | CCC(C)C(N)C(=O)OC(C)(C)Cc1ccc(Cl)cc1 (centres unmarked) [MP-11, 1-(4-chlorophenyl)-2-methylpropan-2-yl 2-amino-3-methylpentanoate] | A, A (A >20%) | A, A (A >20%) | –
9 | 4.95 | CC(N)C(=O)OC(C)(C)CCc1ccc(Cl)cc1 (centres unmarked) [MP-12, 4-(4-chlorophenyl)-2-methylbutan-2-yl 2-aminopropanoate] | A, A (A >20%) | A, A (A >20%) | –
10 | 6.49 | CC(C)(Cc1ccc(Cl)cc1)OC(=O)C(N)CCCCN (centres unmarked) [MP-13, 1-(4-chlorophenyl)-2-methylpropan-2-yl 2,6-diaminohexanoate] | C (C = 100% increase versus control) | A (A >20%) | –
11 | 2.53 | CC(C)(Cc1ccc(Cl)cc1)OC(=O)C(N)CO (centres unmarked) [MP-16, 1-(4-chlorophenyl)-2-methylpropan-2-yl 2-amino-3-hydroxypropanoate] | A, A (A >20%) | A, A (A >20%) | –
12 | 3.86 | CC(C)(Cc1ccc(Cl)cc1)OC(=O)CCN [MP-17, 1-(4-chlorophenyl)-2-methylpropan-2-yl 3-aminopropanoate] | C (C = 100% increase versus control) | A (A >20%) | –
13 | 4.01(2) | C[C@H](N)CC(=O)OC(C)(C)Cc1ccc(Cl)cc1 [MP-18, (S)-1-(4-chlorophenyl)-2-methylpropan-2-yl 3-aminobutanoate] | A (A >20%) | a (a <250%) | –
14 | 2.61 | CC(C)(Cc1ccc(Cl)cc1)OC(=O)C1CCCCN1 (centres unmarked) [MP-19, 1-(4-chlorophenyl)-2-methylpropan-2-yl piperidine-2-carboxylate] | A, A (A >20%) | A, A (A >20%) | –
15 | 2.66 | CC(C)(Cc1ccc(Cl)cc1)OC(=O)C1CCCN1 (centres unmarked) [MP-20, 1-(4-chlorophenyl)-2-methylpropan-2-yl pyrrolidine-2-carboxylate] | B (B >50%) | A (A >20%) | –
16 | 3.03 | CNC(C)C(=O)OC(C)(C)Cc1ccc(Cl)cc1 (centres unmarked) [MP-23, 1-(4-chlorophenyl)-2-methylpropan-2-yl 2-(methylamino)propanoate] | a, a (a <250%) | a, a (a <250%) | –
17 | 1.23(2) | CC(C)(Cc1ccc(F)c(F)c1)NC(=O)C1CCCN1 (centres unmarked) [MP-25, N-(1-(3,4-difluorophenyl)-2-methylpropan-2-yl)pyrrolidine-2-carboxamide] | B (B >50%) | A (A >20%) | –
18 | 4.92 | C[C@H](N)C(=O)OC1(Cc2ccc(Cl)cc2)CCCC1 [MP-34, 1-(4-chlorobenzyl)cyclopentyl alaninate] | A, A (A >20%) | A, A (A >20%) | –

Continued, molecule first:

Row | Structure (SMILES) | PAMPA (PAMPA) | SirT1 SOμM [1] | SirT1 SμM [1] | SirT1 increase [1]
19 | C[C@H](N)C(=O)OC1(Cc2ccc(Cl)cc2)CCNC1 (single isomer, unassigned) [MP-32, 3-(4-chlorobenzyl)pyrrolidin-3-yl L-alaninate] | 0.68 | C (C = 100% increase versus control) | A (A >20%) | –
20 | C[C@H](N)C(=O)OC1(Cc2ccc(Cl)cc2)CCNC1 (single isomer, unassigned) [MP-33, 3-(4-chlorobenzyl)pyrrolidin-3-yl L-alaninate] | 0.7 | C (C = 100% increase versus control) | A (A >20%) | –
21 | C[C@@H](N)C(=O)OC1(Cc2ccc(Cl)cc2)CCNCC1 (stereo in doubt) [MP-49, 4-(4-chlorobenzyl)piperidin-4-yl alaninate] | 1.02(2) | B (B >50%) | A (A >20%) | –
22 | CC(N)C(=O)OC(C)(C)Cc1ccccc1 (centres unmarked) [MP-02, 2-methyl-1-phenylpropan-2-yl 2-aminopropanoate] | 3.17 | A, A (A >20%) | A, A (A >20%) | –
23 | CC(N)C(=O)OC(C)(C)Cc1ccc(F)c(F)c1 (centres unmarked) [MP-03, 1-(3,4-difluorophenyl)-2-methylpropan-2-yl 2-aminopropanoate] | 2.37 | C (C = 100% increase versus control) | B (B >50%) | –
24 | CC(N)C(=O)OC1(Cc2ccc(Cl)cc2)CCC1 (centres unmarked) [MP-09, 1-(4-chlorobenzyl)cyclobutyl 2-aminopropanoate] | 4.16 | A, A (A >20%) | A, A (A >20%) | –
25 | CC(N)C(=O)OC(C)(C)Cc1cc(F)cc(F)c1 (centres unmarked) [MP-14, 1-(3,5-difluorophenyl)-2-methylpropan-2-yl 2-aminopropanoate] | 2.17 | A, A (A >20%) | A, A (A >20%) | –
26 | CC(N)C(=O)NC(C)(C)Cc1ccc(Cl)cc1 (centres unmarked) [MP-15, 2-amino-N-(1-(4-chlorophenyl)-2-methylpropan-2-yl)propanamide] | 2.74 | B (B >50%) | A (A >20%) | –
27 | CC(N)C(=O)NC(C)(C)Cc1ccc(F)c(F)c1 (centres unmarked) [MP-22, -amino-N-(1-(3,4-difluorophenyl)-2-methylpropan-2-yl)propanamide] | 1.7 | C (C = 100% increase versus control) | A (A >20%) | –
28 | CC(C)(Cc1ccc(F)c(F)c1)NC(=O)C1CCCN1C(=O)OC(C)(C)C (centres unmarked) [MP-24, tert-butyl 2-(1-(3,4-difluorophenyl)-2-methylpropan-2-ylcarbamoyl)pyrrolidine-1-carboxylate] | 1.27 | a, a (a <250%) | a, a (a <250%) | –
29 | CC(N)C(=O)OC(Cc1ccc(Cl)cc1)c1ccccc1 (centres unmarked) [MP-26] | 3.45 | A, A (A >20%) | A, A (A >20%) | –
30 | C[C@@H](N)C(=O)NC(C)(C)Cc1ccc(Cl)cc1 [MP-27, (R)-2-amino-N-(1-(4-chlorophenyl)-2-methylpropan-2-yl)propanamide] | 2.72 | a, a (a <250%) | a, a (a <250%) | –
31 | C[C@H](N)C(=O)NC(C)(C)Cc1ccc(Cl)cc1 [MP-28, (S)-2-amino-N-(1-(4-chlorophenyl)-2-methylpropan-2-yl)propanamide] | 2.78 and 2.86 | B (B >50%) | A (A >20%) | –
32 | CC(C)(Cc1ccc(Cl)cc1)NC(=O)C(C)(C)N [MP-29, 2-amino-N-(1-(4-chlorophenyl)-2-methylpropan-2-yl)-2-methylpropanamide] | 2.1 | a, a (a <250%) | a, a (a <250%) | –
33 | C[C@H](N)C(=O)NC(C)(Cc1ccc(Cl)cc1)c1ccc(Br)cc1 (some centres unmarked) [MP-30] | 2.89 | A, A (A >20%) | A, A (A >20%) | –
34 | C[C@H](N)C(=O)NC(C)(C)Cc1ccc(F)c(F)c1 [MP-35, (S)-2-amino-N-(1-(3,4-difluorophenyl)-2-methylpropan-2-yl)propanamide] | 1.7 | A, A (A >20%) | A, A (A >20%) | –
35 | C[C@@H](N)C(=O)NC(C)(C)Cc1ccc(F)c(F)c1 [MP-36, (R)-2-amino-N-(1-(3,4-difluorophenyl)-2-methylpropan-2-yl)propanamide] | 1.66 | a, a (a <250%) | a, a (a <250%) | –
36 | Cl.N[C@H]1Cc2cc(Cl)ccc2CNC1=O [MP-109, (S)-4-amino-7-chloro-4,5-dihydro-1H-benzo[c]azepin-3(2H)-one] | – | B (B >50%) | A (A >20%) | increases SirT1
37 | CNCCC(Oc1ccc(C(F)(F)F)cc1)c1ccccc1 (centres unmarked) [fluoxetine, reference compound] | – | – | – | did not increase SirT1
38 | CC12CC3CC(C)(C1)CC(N)(C3)C2 [memantine, reference compound] | – | – | – | did not increase SirT1
